Converted amounts (≈) assume the structure as drawn.
What was measured:
[1] = tested on: S. aureus ATCC 29213; test: Antibacterial activity, broth microdilution (S. aureus); settings: Staphylococcus aureus, ATCC29213, read-out: S. aureus ATCC 29213 (Gram +ve) MIC
Method: (§1) All twenty-eight molecules were evaluated for in vitro antimicrobial activities that were assessed against Gram +ve and Gram -ve strains.
(§2) The antibacterial inhibitory effects of all compounds were assessed using the broth microdilution method, with ciprofloxacin serving as the reference medication.

[2] = tested on: E. coli ATCC 25922; test: Antibacterial activity, broth microdilution (E. coli); settings: for MIC: Escherichia coli, ATCC25922, read-out: E. coli ATCC 25922 (Gram –ve) MIC, broth microdilution; for E. coli ATCC 25922 (Gram –ve) MIC: broth microdilution
Method: as §1, §2

[3] = molecular target: MtDHFR (Mycobacterium tuberculosis, UniProt P9WNX1); test: biochemical; assay type: biochemical
MtDHFR, sequence (P9WNX1 whole entry): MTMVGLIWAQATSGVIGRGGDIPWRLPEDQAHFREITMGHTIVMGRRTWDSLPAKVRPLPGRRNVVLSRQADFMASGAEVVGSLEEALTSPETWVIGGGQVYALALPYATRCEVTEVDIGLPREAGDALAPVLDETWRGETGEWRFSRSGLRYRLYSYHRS

[4] = tested on: M. tuberculosis H37Rv; test: Antitubercular activity, Microplate Alamar Blue test (MABA); assay type: cell-based, Mycobacterium tuberculosis; settings: n = 3; for MIC: Mycobacterium tuberculosis, H37RV
[5] = molecular target: InhA enzyme from M. tuberculosis (Mycobacterium tuberculosis, UniProt P9WGR1); test: InhA inhibition assay; assay type: biochemical; settings: read-out: % InhA Inhibition at 50 µM
InhA enzyme from M. tuberculosis, sequence (P9WGR1 whole entry, looked up): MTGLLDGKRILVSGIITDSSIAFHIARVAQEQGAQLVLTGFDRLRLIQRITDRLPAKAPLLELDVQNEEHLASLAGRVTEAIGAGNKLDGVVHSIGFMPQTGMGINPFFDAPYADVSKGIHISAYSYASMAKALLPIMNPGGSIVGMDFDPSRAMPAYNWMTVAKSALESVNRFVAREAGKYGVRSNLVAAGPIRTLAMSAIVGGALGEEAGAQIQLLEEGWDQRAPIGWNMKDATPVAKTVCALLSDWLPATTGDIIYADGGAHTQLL

[6] = tested on: human lung cancer cell line A549; test: MTT-based cytotoxicity; assay type: cell-based; settings: MTT assay; for IC50: Homo sapiens, A549
Method: The cytotoxic effects of seventeen selected molecules were assessed against the A549 human lung adenocarcinoma cell line using the MTT assay. Cisplatin served as the reference drug for comparison. Lower IC50 values indicate higher cytotoxicity.
The cytotoxic activity (IC50) of selected compounds against A549 (lung adenocarcinoma) MV cell-lines was evaluated by performing cellular conversion of MTT [3-(4,5-dimethylthiazo-2-yl)-2,5-diphenyl-tetrazolium bromide] into a formazan product. This evaluation was conducted up to a concentration of 50 mg/mL using the Promega Cell Titre 96 non-radioactive cell proliferation assay, with cisplatin serving as the positive control. Cytotoxicity is commonly quantified by determining the IC50 value, which represents the quantity of a substance that reduces the optical density of treated cells by 50% compared to untreated cells, as measured by the MTT experiment. The results are presented as IC50 values (mean ± standard error of the mean (SEM) obtained from three separate and independent measurements.

Row | SMILES | MIC [1] [µg/mL] | MIC [2] [µg/mL] | IC50 [3] [µM] | MtDHFR inhibition, in words, compared with trimethoprim [3] | MIC [4] [µg/mL] | inhibition at 50 µM [5] [%] | IC50 [6] [µg/mL] | M. tuberculosis H37Rv MIC values [4] [µg/mL] | E. coli ATCC 25922 (Gram –ve) MIC [2] [µg/mL] | IC50 human lung cancer cell line A549 [6] [µg/mL]
1 | O=C(O)c1cn(C2CC2)c2cc(N3CCNCC3)c(F)cc2c1=O [Ciprofloxacin, reference compound] | 2 (≈ 6.04 µM) | 2 (≈ 6.04 µM) | – | – | – | – | – | – | – | –
2 | O=C(OCC(=O)n1[nH]c(=O)ccc1=O)c1ccc(-n2cccc2)cc1 [Compound 4e, 2-(3,6-dioxo-2,3-dihydropyridazin-1(6H)-yl)-2-oxoethyl 4-(1H-pyrrol-1-yl)benzoate] | 6.25 (≈ 18.4 µM) | 1.6 (≈ 4.72 µM) | 32 | greater inhibition characteristics than trimethoprim | 1.6 (≈ 4.72 µM) | – | – | – | – | –
3 | C/C(=N\NC(=O)COC(=O)c1ccc(-n2cccc2)cc1)c1ccc(Br)cc1 [Compound 5b, 2-(2-(1-(4-bromophenyl)ethylidene) hydrazineyl)-2-oxoethyl-4-(1H-pyrrol-1-yl) benzoate] | 1.6 (≈ 3.63 µM) | 0.4 to 0.8 (≈ 0.908 to 1.82 µM) | 23 | greater inhibition characteristics than trimethoprim | 0.8 (≈ 1.82 µM) | 22 | 266 ± 0.3 (≈ 604 µM) | 0.8 | 0.4 | –
4 | [H]/N=C(/N)N[C@H]1[C@H](O)[C@@H](O)[C@H](O[C@@H]2O[C@@H](C)[C@](O)(C=O)[C@H]2O[C@@H]2O[C@@H](CO)[C@H](O)[C@@H](O)[C@@H]2NC)[C@@H](N/C(N)=N\[H])[C@@H]1O [Streptomycin, reference compound] | 2 (≈ 3.44 µM) | – | – | – | 0.8 (≈ 1.38 µM) | – | – | – | – | –
5 | CC(=NNC(=O)COC(=O)c1ccc(-n2cccc2)cc1)c1cccc(Cl)c1 [Compound 5k, 2-(2-(1-(3-chlorophenyl)ethylidene)hydrazinyl)-2-oxoethyl 4-(1H-pyrrol-1-yl)benzoate] | 12.5 (≈ 31.6 µM) | 3.12 (≈ 7.88 µM) | 69 | moderate inhibition | 1.6 (≈ 4.04 µM) | 32 | 229 ± 0.4 (≈ 579 µM) | – | – | –
6 | N.N.[Cl][Pt][Cl] [Cisplatin, reference compound] | – | – | – | – | – | – | – | – | – | 9.90
7 | CC(=NNC(=O)COC(=O)c1ccc(-n2cccc2)cc1)c1ccc(Cl)cc1Cl [Compound 5n, 2-(2-(1-(2,4-dichlorophenyl)ethylidene)hydrazinyl)-2-oxoethyl 4-(1H-pyrrol-1-yl)benzoate] | 6.25 (≈ 14.5 µM) | 0.4 to 0.8 (≈ 0.93 to 1.86 µM) | 93 | – | 3.12 (≈ 7.25 µM) | – | – | – | 0.8 | –
8 | O=C(COC(=O)c1ccc(-n2cccc2)cc1)NN=Cc1ccccc1 [Compound 6a, 2-(2-benzylidenehydrazinyl)-2-oxoethyl 4-(1H-pyrrol-1-yl)benzoate] | 12.5 (≈ 36 µM) | 1.6 (≈ 4.61 µM) | 132 | – | 1.6 (≈ 4.61 µM) | 13 | 244 ± 0.8 (≈ 702 µM) | – | – | –
9 | COc1ccc(C(C)=NNC(=O)COC(=O)c2ccc(-n3cccc3)cc2)cc1 [Compound 5i, 2-(2-(1-(4-methoxyphenyl)ethylidene)hydrazinyl)-2-oxoethyl 4-(1H-pyrrol-1-yl)benzoate] | 6.25 (≈ 16 µM) | 1.6 (≈ 4.09 µM) | 129 | – | 3.12 (≈ 7.97 µM) | – | – | – | – | –
10 | CC(=NNC(=O)COC(=O)c1ccc(-n2cccc2)cc1)c1ccc(N)cc1 [Compound 5o, 2-(2-(1-(4-aminophenyl)ethylidene)hydrazinyl)-2-oxoethyl 4-(1H-pyrrol-1-yl)benzoate] | 12.5 (≈ 33.2 µM) | 3.12 (≈ 8.29 µM) | 90 | – | 3.12 (≈ 8.29 µM) | – | – | – | – | –
11 | COc1cccc(C(C)=NNC(=O)COC(=O)c2ccc(-n3cccc3)cc2)c1 [Compound 5h, 2-(2-(1-(3-methoxyphenyl)ethylidene)hydrazinyl)-2-oxoethyl 4-(1H-pyrrol-1-yl)benzoate] | 12.5 (≈ 31.9 µM) | 3.12 (≈ 7.97 µM) | 124 | – | 1.6 (≈ 4.09 µM) | – | – | – | – | –
12 | CC(=NNC(=O)COC(=O)c1ccc(-n2cccc2)cc1)c1ccc(Cl)cc1 [Compound 5c, 2-(2-(1-(4-chlorophenyl)ethylidene)hydrazinyl)-2-oxoethyl 4-(1H-pyrrol-1-yl)benzoate] | 6.25 (≈ 15.8 µM) | 1.6 (≈ 4.04 µM) | 100 | – | 1.6 (≈ 4.04 µM) | – | – | – | – | –
13 | NNC(=O)c1ccncc1 [Isoniazid, reference compound] | – | – | – | – | 1.6 (≈ 11.7 µM) | > 99 | > 450 | – | – | –
